The values that follow come from PubChem BioAssay AID2305 (GlaxoSmithKline (GSK), 2010).

pIC50: −log10 of the molar value. “And” between values parts separate entries of the source, which are not always exact repeats. Identical values can stand only once.

The assay deals with P. falciparum 3D7 growth, pLDH absorbance. The assay is described as follows: blood-stage malaria parasite growth potency – strain 3D7, dose response (AID 2305).
With `COC(=O)c1ccc(CCC(C)NCC(O)c2cccc(C(F)(F)F)c2)cc1` (stereo unspecified), the pIC50 was 6.39. The compound `CN1CCC(N(Cc2ccc(-c3ccc(Cl)cc3)cc2)C(=O)Cn2c(CCc3cccc(F)c3F)cc(=O)c3ccccc32)CC1` gave a pIC50 of 6.07. Against the preceding compound, the pIC50 is 0.32 log units lower. Take `Fc1cccc(COc2ccc(Nc3ncnc4sc(C#C[C@H]5CCCN5)cc34)cc2F)c1`: the pIC50 was 6.06. For the compound `O=C1COC(c2ccccc2)(c2ccccc2)CN1CC1CCN(Cc2ccc(O)cc2Cl)C1` (stereo unspecified), the pIC50 is 6.00. As to `O=C(NCCCN1CCOCC1)c1ccc(-c2cccc(NC(=O)c3ccc(Cl)c(Cl)c3)c2)cc1`, the pIC50 was 6.17. `c1cncc(CCNCc2cccc(-c3ccc(-c4nc5ccccc5[nH]4)s3)c2)c1` showed a pIC50 of 6.70. On to `COc1ccc2cc(C=NNc3nc4ccccc4[nH]3)c(Cl)nc2c1`, for which the pIC50 is 6.19. As for `O=C(C=Cc1ccc(Cl)c(Cl)c1)NCCCCCN1CCCC(CCCNC(=O)c2ccc3c(c2)OCO3)C1` (stereo unspecified), the figure is 5.91.

`CCN(CC)CCCC(C)N=C(Nc1ccc(C#N)cc1O)Nc1ccccc1Br` (stereo unspecified) showed a pIC50 of 5.98. This pIC50 and that of the compound before are within 0.2 log units of each other. As for `NC(=O)N1CCN(Cc2ccc(Br)cc2)CC1`, the figure is 6.21; as for `CC(=O)Nc1cccc(NC(=O)CSc2ccc(-c3nc4ccccc4[nH]3)cn2)c1`, 6.25. With `CCCN(CCC)C(=O)c1cc(C(=O)N[C@@H](Cc2ccccc2)[C@H](O)CNC(C)(C)c2cccc(C(F)(F)F)c2)cc(N2CCCCS2(=O)=O)c1`, the negative-log IC50 (pIC50) was 7.40. Compound `COc1ccc2nccc(N3CCC(CCNCc4ccc5c(n4)NC(=O)CO5)CC3)c2c1` showed a pIC50 of 6.15. As for `O=c1cc(NCCCNCc2cccc(OC(F)(F)C(F)F)c2)[nH]c2ccccc12`, the pIC50 was 5.90. This pIC50 lies 0.25 log units lower than the previous one. In turn, `O=C(/C=C/c1ccc(Cl)c(Cl)c1)NC1CCC(N2CCC(c3c[nH]c4ccccc34)CC2)CC1` (stereo unspecified) had a pIC50 of 6.06. This pIC50 and that of the compound before are within 0.2 log units of each other. Regarding `CC(C)(C)c1ccc(O)c(CNC2CCCCC2)c1`, the pIC50 is 6.59. Against the preceding compound, the pIC50 is 0.53 log units higher. In the case of `O=S(=O)(c1c(Cl)cc(Cl)cc1Cl)N1CCCCC(c2ccc(Cl)cc2)=N1`, the pIC50 was 6.40.

As for `Cc1ccc(O)cc1Nc1c(C(N)=O)cnc2ccc(-c3cncs3)cc12`, the pIC50 is 6.17. Take `O=C(Nc1cccc(-c2cccc(-c3nc4ccccc4[nH]3)c2)c1)N[C@@H]1C[C@H]1c1ccccc1`: the pIC50 was 5.97 and 6.05. As for `CC(C)c1cccc(OCC2CCN(c3ncc(C(=O)NC4CC4)cc3Cl)CC2)c1`, the pIC50 was 6.17. In the case of `O=C(O[C@@H]1CN[C@H](C#Cc2cc3c(Nc4ccc5c(cnn5Cc5ccccc5)c4)ncnc3s2)C1)N1CCCC1`, the negative-log IC50 (pIC50) was 6.38.

In turn, `Oc1cccc(CCNCCCCCCNCCc2ccc(Cl)cc2)c1` showed a pIC50 of 6.11. The compound `COc1ccc2nccc([C@@H](O)CN3CCC(NC(=O)c4nc(Cl)c(Cl)c(N)c4Cl)CC3)c2c1` had a pIC50 of 5.89. On to `COc1ccc(NC(=O)CCNc2cc(C)nc(NCCOc3ccccc3)n2)cc1`, for which the pIC50 was 6.12. `Cc1cccc2[nH]c(-c3cccc(-c4ccc(NC(=O)C(C)CN5CCN(C)CC5)cc4)c3)nc12` (stereo unspecified) gave a pIC50 of 6.74. Against the preceding compound, the pIC50 is 0.62 log units higher. Take `Cc1ccc2cc(NC(=O)CCCCCCCON3C(N)=NC(N)=NC34CCCCC4)ccc2n1`: the pIC50 is 7.05. As for `CCCN1CCN(c2cc(NCC)c3c4c(onc24)-c2ccccc2C3=O)CC1`, the figure is 5.97. `O=c1cc(NCCCCNCc2cccc(Br)c2)[nH]c2ccccc12`: the pIC50 is 6.14. The compound `Cc1cc(NC(=O)c2coc3cc(F)c(N4C[C@@H](C)N(C)[C@@H](C)C4)cc23)ccc1-n1ccnc1` had a pIC50 of 6.08.

On to `COc1cc(C(C)C)ccc1C1CCN(CCCCNC(=O)c2ccc(NC(=O)c3ccc(Cl)cc3)cc2)CC1`, for which the pIC50 is 6.35. `O=C(N[C@@H](Cc1ccccc1)C(=O)NC1CCCc2ccccc21)c1ccc(O)c(-c2ccc(Cl)c(Cl)c2)c1` (stereo partly specified) showed a pIC50 of 6.68. The compound `CCCC1(NC[C@@H](O)[C@H](Cc2ccccc2)NC(=O)c2cc(NCC)cc(N3CCCCS3(=O)=O)c2)CC1` showed a pIC50 of 5.97. `O=C(/C=C/c1ccsc1)N1CCC(CCN2CCC(c3c[nH]c4ccccc34)CC2)CC1` gave a pIC50 of 6.04. `OC(CNCc1ccccc1Oc1ccccc1)c1cc(Br)cs1` (stereo unspecified) showed a pIC50 of 5.95. As for `COc1cc2nc(-c3ccccc3)nc(N3CCN(C(=O)c4ccco4)CC3)c2cc1OC`, the figure is 5.85; as for `CN(C)CCNCc1ccc(-c2ccc3c(Nc4ccc(Oc5ccccc5)cc4)ccnc3c2)o1`, 6.55; as for `CC(C)(C)CCN1CCC(CNC(=O)c2cc(-c3cccc(Cl)c3)cs2)C1` (stereo unspecified), 6.09. `COc1ccc(CNCc2ccc(F)cc2)cc1-c1ccc(S(=O)(=O)NCCN2CCCC2)s1` gave a pIC50 of 6.15. The compound `COc1ccc2nccc(N3CCC(CCNCc4ccc5c(n4)NC(=O)CO5)CC3)c2n1` showed a pIC50 of 6.00. `Cc1noc(C)c1-c1cccc(CNCc2cccc(-c3cccc(-c4nc5c(C)cccc5[nH]4)c3)c2)c1`: the pIC50 is 6.43. Compared with the last compound, the pIC50 is 0.43 log units higher. The compound `Cc1ccc(-c2ccn(Cc3cccc(OCc4ccccc4)c3)n2)cn1` (tested in a mixture with another compound) had a pIC50 of 5.93. On to `CCOC(=O)C(Oc1ccc2ccccc2c1)C(=O)OCC`, for which the pIC50 was 6.12.

`Cc1ccccc1CNC(=O)Nc1cccc(-c2csc(N=C(N)N)n2)c1` showed a pIC50 of 6.15.

Compound `COCCn1c(Sc2ccc(C#N)c([N+](=O)[O-])c2)nnc1-c1ccc(N(C)C)cc1` showed a pIC50 of 5.99. In turn, `O=C(NCCNc1ccnc(Nc2ccc(F)cc2)n1)Nc1ccc2c(c1)OCO2` showed a pIC50 of 6.17. This pIC50 and that of the compound before are within 0.2 log units of each other. `Cc1ccc2c(c1)NC[C@@]21CCN(C[C@@H](O)C2CCN(c3cc(C#N)ccn3)CC2)C[C@@H]1C` gave a pIC50 of 6.21.

The compound `O=[N+]([O-])c1ccccc1C=NNc1ccnc2cc(Cl)ccc12` gave a pIC50 of 6.06. As to `O=C(NC1CCN(c2ccnc(Nc3ccc(F)cc3)n2)C1)c1cc2ccccc2s1` (stereo unspecified), the pIC50 was 6.14. The pIC50 values of the last two compounds are within 0.2 log units of each other. As for `Cc1ccc(Nc2ccnc(Nc3ccc(C)c(F)c3)n2)cc1O`, the figure is 6.12; as for `CC(C)Cn1cc(C2CCN(CCN3CCC(CNC(=O)c4ccc(NC(=O)c5cc(Cl)cc(Cl)c5)cc4)CC3)CC2)c2ccccc21`, 6.16; as for `Cc1nc(-c2ccc(-c3ccc(NC(=O)c4coc5ccc(N6C[C@@H](C)N[C@@H](C)C6)cc45)cc3)c(C)c2)no1`, 6.03. In turn, `O=C(Nc1nc2ccc(Cl)cc2s1)c1csnn1` gave a pIC50 of 6.10. The pIC50 values of the last two compounds are within 0.2 log units of each other. For `CCOC(=O)c1ccc(NC(=O)Nc2cccc(-c3cccc(-c4nc5c(C)cccc5[nH]4)c3)c2)cc1`, the pIC50 was 6.96. Compound `CCn1cc(C=C2Oc3c(ccc(O)c3CN3CCCCC3)C2=O)c2cc(OC)ccc21` had a pIC50 of 6.28. In turn, `O=C(Nc1cccc(-c2cccc(-c3nc4ccc(F)cc4[nH]3)c2)c1)c1csnn1` gave a pIC50 of 6.10. The pIC50 values of the last two compounds are within 0.2 log units of each other. As for `CCNc1cc(C(=O)N[C@@H](Cc2ccccc2)[C@H](O)CNCC(C)C)cc(N2CCCC2=O)c1`, the figure is 6.31; as for `CCC(=O)Nc1cc(=O)[nH]c2nc(-c3ccc(Cl)cc3)nn12`, 6.24; as for `CCCCC(=O)Nc1nc2ccc([N+](=O)[O-])cc2s1`, 6.12.

Take `CCCCN(C)CC#Cc1ccc2[nH]c(C)c(Cl)c(=O)c2c1`: the pIC50 is 6.89. The compound `Cc1cc(OCC2CCCN(c3ncc(C(=O)NC4CC4)cc3Cl)C2)ccc1F` (stereo unspecified) had a negative logarithm of the IC50 (pIC50) of 5.83. This pIC50 is 1.06 log units lower than that of the compound before. As to `COc1ccc(Oc2cnc(N)nc2N)c(C(C)C)c1`, the pIC50 was 6.13.

The term pIC50 denotes the negative decadic logarithm of the IC50, by convention in mol/L.
